Read-outs that look alike come from different tables or passages of the source.
What was measured:
[1] = system: seed geranium (Pelargonium×hortorum); conditions: in combination with nitrogen, phosphorus, and potassium; cited from earlier work
humans [2] = conditions: 2005 carcinogen assessment guidelines; cited from earlier work
humans [3] = conditions: cited from earlier work
chlorophyllitic plants [4] = assay: Photosynthetic disruption by glyphosate; assay type: in vivo
Method: Extensive research has documented that plants are often sensitive to relatively minute concentrations or exposures to unique synthetic compounds or combinations of naturally occurring elements, including micronutrients. For example, glyphosate (aka ROUNDUP®, a synthetic Monsanto/Bayer product) is effective at causing photosynthetic disruption in chlorophyllitic plants at an application rate of as little as 0.75 pounds active ingredient per acre, which equates to only approximately 8 mg/square foot of application, equivalent to approximately 14 ppm application rate. The American Phytopathological Society (APS) reported that micronutrients are generally toxic when present in high amounts, although ‘high concentrations’ are not clearly defined, and little toxicity have been reported at exceptionally low micronutrient concentrations. This occurrence is known as micronutrient toxicity syndrome (MTS). […] In addition, plants can vary considerably from species to species in their susceptibility to nutrient toxicities. For example, Lee and others (1996) reported inducing seed geranium (Pelargonium×hortorum) micronutrient toxicity symptoms by applying nutrient solutions containing 0.5 mg/L B, Cu, or Zn, or as little as 0.25 mg/L Mo, in combination with nitrogen, phosphorus, and potassium. […]

chlorophyllitic plants [5] = conditions: in vivo; cited from earlier work
French marigold = conditions: in vivo; cited from earlier work

Row | Compound | endocrine disruptor classification (humans [3]) | concentration inducing micro-nutrient toxicity (French marigold) [ng/mL] | other results
1 | [Zn] [Zn, zinc] | – | – | nutrient solution concentration inducing micronutrient toxicity symptoms [1]: 0.5 mg/L
2 | borate salts | neither classified as endocrine disruptors | – | U.S. EPA carcinogenicity classification (humans [2]): not likely to be carcinogenic to humans
3 | O=C(O)CNCP(=O)(O)O [glyphosate] | – | – | application rate effective at causing photosynthetic disruption (chlorophyllitic plants [4]; equates to the rate per acre): approximately 8 mg/square foot; application rate effective at causing photosynthetic disruption (chlorophyllitic plants [4]; equivalent application rate): approximately 14 ppm; application rate effective at causing photosynthetic disruption (chlorophyllitic plants [5]): 0.75 pounds active ingredient per acre
4 | [Mn+2] [manganese] | – | 1000 | –
5 | [B] [boron] | neither classified as endocrine disruptors | 500 | –
6 | [Cu] [copper] | – | 4000 | –
7 | OB(O)O [boric acid] | neither classified as endocrine disruptors | – | –
8 | [Mo] [molybdenum] | – | 5000 | –
